One data set deals with IGF1R (Homo sapiens, UniProt P08069). In words: Tyrosine kinase inhibition rate (ELISA), IGF1R. Type of data set: biochemical. Particulars: read-out: Inhibtion rate (%) IGF1R. A general note: In an ELISA, binding on a coated surface is turned into a signal by an enzyme label.
The next data set concerns the target ErbB4 (Homo sapiens, UniProt Q15303). Description: Tyrosine kinase inhibition rate (ELISA), ErbB4. Type of data set: biochemical. The settings on record: read-out: Inhibtion rate (%) ErbB4.
The target in another data set is RET (Homo sapiens, UniProt P07949). Description: Tyrosine kinase inhibition rate (ELISA), RET. The settings on record: read-out: Inhibtion rate (%) RET. Type of data set: biochemical.
The subject of the next data set is EBC-1 cells. In words: Inhibition of c-Met-mediated EBC-1 cell proliferation (SRB staining). Type of data set: cell-based. The settings on record: Homo sapiens, 72 hours treatment. The essentials:
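MET-amplified EBC-1 NSCLC cells in log phase were seeded, cultured overnight, then exposed to compound in triplicate for 72 h. Growth was measured by TCA fixation, SRB staining and OD at 515 nm. IC50 reported as a range from the initial screening concentrations; experiment repeated twice.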
In general terms: In SRB staining, fixed cells bind dye roughly in proportion to their protein.

A further data set addresses FGFR1 (Homo sapiens, UniProt P11362). Description: Tyrosine kinase inhibition rate (ELISA), FGFR1. Type of data set: biochemical.
A further data set deals with Flt-1 (Homo sapiens, UniProt P17948). In words: Tyrosine kinase inhibition rate (ELISA), Flt-1. Type of data set: biochemical. Particulars: read-out: Inhibtion rate (%) Flt-1.
Chain of Flt-1 (P17948 27-1338, species assumed): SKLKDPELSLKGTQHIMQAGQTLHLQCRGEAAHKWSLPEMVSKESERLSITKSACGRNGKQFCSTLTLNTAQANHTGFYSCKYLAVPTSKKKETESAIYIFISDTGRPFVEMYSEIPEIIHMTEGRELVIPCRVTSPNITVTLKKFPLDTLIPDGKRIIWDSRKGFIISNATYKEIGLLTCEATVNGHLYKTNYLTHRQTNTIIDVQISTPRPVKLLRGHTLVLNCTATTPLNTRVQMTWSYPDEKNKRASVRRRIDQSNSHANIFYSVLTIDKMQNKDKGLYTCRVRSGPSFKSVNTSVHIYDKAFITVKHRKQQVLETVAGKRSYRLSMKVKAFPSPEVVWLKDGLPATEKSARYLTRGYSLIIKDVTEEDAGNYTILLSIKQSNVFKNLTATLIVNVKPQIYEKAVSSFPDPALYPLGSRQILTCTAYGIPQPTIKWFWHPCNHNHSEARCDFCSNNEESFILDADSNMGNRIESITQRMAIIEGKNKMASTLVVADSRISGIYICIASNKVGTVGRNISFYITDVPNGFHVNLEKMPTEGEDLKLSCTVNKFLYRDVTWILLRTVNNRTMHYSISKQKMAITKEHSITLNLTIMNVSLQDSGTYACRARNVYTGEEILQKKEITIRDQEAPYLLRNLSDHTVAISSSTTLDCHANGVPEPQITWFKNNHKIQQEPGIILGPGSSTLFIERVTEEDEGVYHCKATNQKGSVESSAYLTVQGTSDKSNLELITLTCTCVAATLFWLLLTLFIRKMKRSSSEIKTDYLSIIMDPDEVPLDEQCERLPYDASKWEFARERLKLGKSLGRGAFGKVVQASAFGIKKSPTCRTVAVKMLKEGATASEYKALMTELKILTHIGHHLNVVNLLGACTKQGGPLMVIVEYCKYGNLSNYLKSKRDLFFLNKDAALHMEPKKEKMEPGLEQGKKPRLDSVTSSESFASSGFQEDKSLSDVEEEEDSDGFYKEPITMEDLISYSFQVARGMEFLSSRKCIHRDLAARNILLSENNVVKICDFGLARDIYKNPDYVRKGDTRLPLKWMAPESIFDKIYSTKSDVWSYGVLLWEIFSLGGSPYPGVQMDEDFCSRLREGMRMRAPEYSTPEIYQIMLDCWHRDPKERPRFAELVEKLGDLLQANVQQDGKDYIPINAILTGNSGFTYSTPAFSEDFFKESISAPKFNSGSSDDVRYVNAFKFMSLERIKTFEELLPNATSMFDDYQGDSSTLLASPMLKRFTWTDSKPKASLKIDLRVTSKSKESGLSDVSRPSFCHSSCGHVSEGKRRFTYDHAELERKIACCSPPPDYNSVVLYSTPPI
The next data set concerns the target ABL (Homo sapiens, UniProt P00519). Description: Tyrosine kinase inhibition rate (ELISA), ABL. Type of data set: biochemical. The settings on record: read-out: Inhibtion rate (%) ABL.
For the next data set, the target named is c-Src (Homo sapiens, UniProt P12931). In words: Tyrosine kinase inhibition rate (ELISA), c-Src. Type of data set: biochemical. Particulars: read-out: Inhibtion rate (%) c-Src.
Chain of c-Src (P12931 whole entry, species assumed): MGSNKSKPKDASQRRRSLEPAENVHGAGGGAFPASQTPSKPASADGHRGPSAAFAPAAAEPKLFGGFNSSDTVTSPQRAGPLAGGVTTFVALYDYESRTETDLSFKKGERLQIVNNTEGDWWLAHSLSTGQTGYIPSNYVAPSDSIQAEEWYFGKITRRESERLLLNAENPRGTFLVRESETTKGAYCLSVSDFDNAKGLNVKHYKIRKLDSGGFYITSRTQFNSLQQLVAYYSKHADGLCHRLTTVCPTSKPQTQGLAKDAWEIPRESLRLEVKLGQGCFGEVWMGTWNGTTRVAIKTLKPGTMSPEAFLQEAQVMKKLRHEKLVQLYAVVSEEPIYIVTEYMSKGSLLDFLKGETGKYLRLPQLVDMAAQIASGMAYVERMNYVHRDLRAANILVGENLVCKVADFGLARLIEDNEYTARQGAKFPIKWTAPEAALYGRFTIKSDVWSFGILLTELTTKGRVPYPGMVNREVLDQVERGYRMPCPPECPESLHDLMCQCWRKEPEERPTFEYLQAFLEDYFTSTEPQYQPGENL
The target of a further data set is EGFR (Homo sapiens, UniProt P00533). Description: Tyrosine kinase inhibition rate (ELISA), EGFR. Particulars: read-out: Inhibtion rate (%) EGFR. Type of data set: biochemical.
Data set [1] deals with human lung cancer EBC-1 xenograft tumor. In words: Growth inhibition of subcutaneous xenograft tumor of human lung cancer EBC-1 in nude mice. Type of data set: in vivo. Particulars: for RTV (mean ± SD) / T/C (%) / TV (mm^3, mean ± SD) d21 / Weight (g) d21: d21. The procedure:
EBC-1 cells were subcutaneously inoculated into the armpit on the right side of the nude mice in an amount of 5×10^6/mouse respectively to form xenograft tumor, which were then passaged in nude mice for three generations. Tumor tissue that was growing vigorously was cut into about 1.5 mm^3 under sterile conditions, and subcutaneously inoculated into the armpit on the right side of the nude mice, and the diameter of the xenograft tumor was measured with a vernier caliper. The diameter of the subcutaneous xenograft tumor in nude mice was measured with a vernier caliper. […] The diameter of xenograft tumor was measured twice a week and the body weight of mice was weighed during the whole experiment. The tumor volume (TV) was calculated by the following equation: TV=½×a×b^2, wherein a and b represent the length and width, respectively. The relative tumor volume (RTV) was calculated based on the measured results, and the calculation equation thereof is: RTV=Vt/V0, wherein V0 is the tumor volume measured when the mice were divided in different cages and administered (i.e., d0) and Vt is the tumor volume measured each time.
In general terms: In xenograft studies the graft and the host belong to different species.

In the next data set the target is PDGFR-β (Homo sapiens, UniProt P09619). In words: Tyrosine kinase inhibition rate (ELISA), PDGFR-β. Type of data set: biochemical. The settings on record: read-out: Inhibtion rate (%) PDGFR-β.
Chain of PDGFR-β (P09619 33-1106, species assumed): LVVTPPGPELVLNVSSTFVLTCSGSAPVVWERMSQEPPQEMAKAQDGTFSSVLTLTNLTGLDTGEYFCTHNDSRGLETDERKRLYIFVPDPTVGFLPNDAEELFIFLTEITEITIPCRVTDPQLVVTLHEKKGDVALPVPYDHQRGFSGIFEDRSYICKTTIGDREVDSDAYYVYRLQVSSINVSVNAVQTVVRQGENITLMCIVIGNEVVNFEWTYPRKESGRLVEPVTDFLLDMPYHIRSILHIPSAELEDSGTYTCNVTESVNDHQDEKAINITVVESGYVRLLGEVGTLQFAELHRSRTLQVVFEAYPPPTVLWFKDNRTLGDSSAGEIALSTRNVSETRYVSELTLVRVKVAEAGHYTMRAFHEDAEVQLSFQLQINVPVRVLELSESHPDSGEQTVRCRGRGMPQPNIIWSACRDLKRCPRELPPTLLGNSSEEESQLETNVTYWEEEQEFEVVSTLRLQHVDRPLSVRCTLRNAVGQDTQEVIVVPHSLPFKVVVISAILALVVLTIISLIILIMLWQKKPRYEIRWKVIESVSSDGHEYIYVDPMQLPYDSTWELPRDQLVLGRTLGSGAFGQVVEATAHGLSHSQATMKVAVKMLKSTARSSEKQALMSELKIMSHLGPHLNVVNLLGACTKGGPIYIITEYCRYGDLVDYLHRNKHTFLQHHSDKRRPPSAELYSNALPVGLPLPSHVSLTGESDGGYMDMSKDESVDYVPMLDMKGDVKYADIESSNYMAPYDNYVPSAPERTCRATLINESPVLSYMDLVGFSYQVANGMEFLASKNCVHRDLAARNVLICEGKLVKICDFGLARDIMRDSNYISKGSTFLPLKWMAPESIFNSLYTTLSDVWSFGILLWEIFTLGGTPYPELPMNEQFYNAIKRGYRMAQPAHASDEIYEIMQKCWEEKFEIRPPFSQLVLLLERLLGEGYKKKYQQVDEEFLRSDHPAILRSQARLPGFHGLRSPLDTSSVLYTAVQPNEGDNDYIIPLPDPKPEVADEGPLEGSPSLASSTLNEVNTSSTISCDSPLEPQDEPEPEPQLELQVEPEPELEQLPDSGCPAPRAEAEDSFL
For another data set, the target named is ALK (Homo sapiens, UniProt Q9UM73). Description: Tyrosine kinase inhibition rate (ELISA), ALK. Type of data set: biochemical. Particulars: read-out: Inhibtion rate (%) ALK.
Data set [2] can be described thus: Pharmacokinetic test in rats. Type of data set: in vivo, Sprague-Dawley rats. The settings on record: rat. The method, then: 14 male Sprague-Dawley rats, weigh 200-220 g, were randomly divided into 4 groups with 4/3 in each group. The rats were intragastrically and intravenously administered with compound 7S and 8S respectively. The compounds were dissolved in normal saline containing 5% of DMSO and solubilized with 5% of tween-80 (Tween 80), and the final concentration of the sample was 1 mg/ml.
The rats were fasted 12 h before the test, free drinking water. They were fed 2 h after administration.
gavage administration: 0.25 h, 0.5 h, 1.0 h, 2.0 h, 3.0 h, 4.0 h, 6.0 h, 8.0 h and 24 h after administration;
intravenous administration: 5 min, 0.25 h, 0.5 h, 1.0 h, 2.0 h, 4.0 h, 6.0 h, 8.0 h and 24 h after administration;
0.3 ml venous blood was collected from the retrobulbar venous plexus of rats at the above time point, and placed in a heparinized tube and centrifuged at 11000 rpm for 5 min. The plasma was separated and frozen in a refrigerator at −20° C.
The concentrations of the compounds in rat plasma were measured by LC/MS/MS.
Pharmacokinetic parameters after administration were calculated using the non-compartmental model of the Phoenix 1.3 software (Pharsight, U.S.A.).
Peak concentration Cmax and peak time Tmax were the measured values;
The area under the curve of the drug concentration vs. time AUC0-t value: calculated according to trapezoidal rule; AUC0-∞=AUC0-t+Ct/ke, Ct is the plasma concentration at the last measurable time point, ke is the elimination rate constant;
Elimination half-life t1/2=0.693/ke;
Average retention time MRT=AUMC/AUC.
Clearance rate CL=D/AUC0-∞;
Volume of distribution at steady state Vss=CL×MRT

The next data set has as its target PDGFR-α (Homo sapiens, UniProt P16234). Description: Tyrosine kinase inhibition rate (ELISA), PDGFR-α. Type of data set: biochemical. Particulars: read-out: Inhibtion rate (%) PDGFR-α.
The next data set concerns the target T1, c-Met kinase (Homo sapiens, UniProt P08581).
T1 construct: c-Met kinase domain recombinant protein diluted with 49 μL of the reaction buffer was added
Description: Inhibitory effect on c-Met kinase activity at molecular level (ELISA).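 Further: recombinant c-Met kinase domain with 5 µM ATP, 1 h at 37 °C, substrate phosphorylation detected by anti-phosphotyrosine PY99 ELISA at 490 nm versus DMSO negative control, ATP-free wells as blank.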 Type of data set: biochemical.

For another data set, the target named is EPH-A2 (Homo sapiens, UniProt P29317). In words: Tyrosine kinase inhibition rate (ELISA), EPH-A2. Type of data set: biochemical. The settings on record: read-out: Inhibtion rate (%) EPH-A2.
[3] abbreviates: 100 mg/kg oral once a day for 21 days.
Setting [4] is: male, Sprague-Dawley, plasma, po, intragastric (gavage) 10 mg/kg, mean.
Where [5] appears, read: male, Sprague-Dawley, plasma, intravenous 5 mg/kg, mean.

Several values for one entry are separate records, joined by “and”; a condition that tells them apart may be missing. Equal values may be shown once. Read-outs that look alike come from different tables or passages of the source.

Chain of FGFR1 (P11362 22-822, species assumed): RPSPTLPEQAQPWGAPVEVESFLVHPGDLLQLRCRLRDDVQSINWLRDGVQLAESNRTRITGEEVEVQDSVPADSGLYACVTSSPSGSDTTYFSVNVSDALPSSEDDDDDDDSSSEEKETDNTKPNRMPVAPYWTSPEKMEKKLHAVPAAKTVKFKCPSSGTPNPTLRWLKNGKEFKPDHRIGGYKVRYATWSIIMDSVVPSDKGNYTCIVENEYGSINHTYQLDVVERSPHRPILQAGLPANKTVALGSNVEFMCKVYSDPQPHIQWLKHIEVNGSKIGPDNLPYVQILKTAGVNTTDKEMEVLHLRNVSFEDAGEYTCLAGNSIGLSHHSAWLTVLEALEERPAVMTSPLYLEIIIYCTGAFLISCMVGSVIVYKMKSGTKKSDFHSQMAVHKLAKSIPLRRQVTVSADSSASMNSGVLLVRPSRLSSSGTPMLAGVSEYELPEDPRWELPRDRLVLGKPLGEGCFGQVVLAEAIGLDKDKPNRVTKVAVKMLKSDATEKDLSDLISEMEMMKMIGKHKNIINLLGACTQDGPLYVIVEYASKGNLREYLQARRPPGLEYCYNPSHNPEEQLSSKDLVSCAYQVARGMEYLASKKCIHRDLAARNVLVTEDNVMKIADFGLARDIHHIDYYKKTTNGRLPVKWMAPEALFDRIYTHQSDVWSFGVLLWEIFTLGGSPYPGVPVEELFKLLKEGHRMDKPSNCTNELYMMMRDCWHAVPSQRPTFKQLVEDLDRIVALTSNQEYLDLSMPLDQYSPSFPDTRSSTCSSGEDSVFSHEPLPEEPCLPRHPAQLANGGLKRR
Chain of PDGFR-α (P16234 24-1089, species assumed): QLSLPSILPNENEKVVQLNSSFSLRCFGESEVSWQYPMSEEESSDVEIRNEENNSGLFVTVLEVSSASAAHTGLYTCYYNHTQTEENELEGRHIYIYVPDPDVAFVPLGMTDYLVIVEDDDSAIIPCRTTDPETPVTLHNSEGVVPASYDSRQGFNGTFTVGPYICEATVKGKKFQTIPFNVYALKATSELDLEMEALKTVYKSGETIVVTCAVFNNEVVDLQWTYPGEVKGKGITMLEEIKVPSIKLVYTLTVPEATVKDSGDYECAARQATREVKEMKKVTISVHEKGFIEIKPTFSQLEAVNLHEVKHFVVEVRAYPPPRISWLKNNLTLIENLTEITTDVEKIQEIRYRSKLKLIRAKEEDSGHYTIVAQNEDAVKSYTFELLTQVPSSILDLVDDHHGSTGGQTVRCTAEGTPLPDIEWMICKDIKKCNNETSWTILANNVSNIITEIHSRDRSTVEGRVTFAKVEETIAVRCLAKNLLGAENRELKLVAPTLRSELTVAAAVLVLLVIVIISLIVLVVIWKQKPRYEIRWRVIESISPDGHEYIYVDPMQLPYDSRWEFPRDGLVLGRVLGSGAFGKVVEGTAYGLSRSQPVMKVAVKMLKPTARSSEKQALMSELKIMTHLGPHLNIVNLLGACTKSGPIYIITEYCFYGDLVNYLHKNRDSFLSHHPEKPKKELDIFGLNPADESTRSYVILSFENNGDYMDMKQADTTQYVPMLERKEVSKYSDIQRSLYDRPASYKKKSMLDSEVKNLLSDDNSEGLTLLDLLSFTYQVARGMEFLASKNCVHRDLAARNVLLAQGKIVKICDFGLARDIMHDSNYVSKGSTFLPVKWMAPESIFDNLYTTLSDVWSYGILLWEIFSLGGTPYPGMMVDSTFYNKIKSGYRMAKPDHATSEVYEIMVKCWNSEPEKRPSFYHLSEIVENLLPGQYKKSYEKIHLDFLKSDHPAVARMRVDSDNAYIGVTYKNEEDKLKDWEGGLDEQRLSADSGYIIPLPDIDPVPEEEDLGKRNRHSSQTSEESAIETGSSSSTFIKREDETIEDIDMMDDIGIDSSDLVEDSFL
T1 sequence (P08581 1078-1345 limits assumed): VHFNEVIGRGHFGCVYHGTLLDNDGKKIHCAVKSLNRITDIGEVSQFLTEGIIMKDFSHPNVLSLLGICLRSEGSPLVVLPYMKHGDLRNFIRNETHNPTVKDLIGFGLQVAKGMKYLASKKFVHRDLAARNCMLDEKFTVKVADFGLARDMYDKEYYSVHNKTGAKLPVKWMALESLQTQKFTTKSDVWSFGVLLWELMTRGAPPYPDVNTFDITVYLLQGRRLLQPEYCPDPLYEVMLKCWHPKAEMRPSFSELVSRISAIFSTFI

On to `Nc1ncnc2c1c(-c1cccc(OCc3ccccc3)c1)cn2[C@H]1C[C@@H](CN2CCC2)C1` [AEW541, reference compound], for which, on IGF1R, the inhibition at 1 µM is 70.9%.
Turning to `CN(C)C/C=C/C(=O)Nc1cc2c(Nc3ccc(F)c(Cl)c3)ncnc2cc1O[C@H]1CCOC1` [BIBW2992, reference compound], the inhibition at 1 µM at ErbB4 stood at 71.1%.
In general, IC50 refers to the concentration at which inhibition is half-maximal. A higher IC50 goes with weaker potency. As a reminder, the bioavailability is dose-corrected exposure relative to a reference, in per cent. As usually defined, the AUC(0-inf) is the area under the concentration-time curve extrapolated to infinity. What is called AUC(0-t) is the area under the concentration-time curve up to a stated or last time point. Lower therefore signals less exposure. Broadly, the Cmax is the peak of the concentration-time curve. What is called Tmax is the time from dosing to the highest level. As usually defined, the half-life is how long it takes for the measured level to halve. Low values mean rapid decline, high ones slow decline. The clearance is the rate of elimination divided by the concentration. For orientation: MRT means a mean duration of stay, worked out from the concentration-time curve. For `O=C(Nc1ccc(F)cc1)C1(C(=O)Nc2ccc(Oc3ccnc4cc(OCCN5CCOCC5)ncc34)c(F)c2)CC1` [Compound 7S, N-(3-fluoro-4-((7-(2-morpholinoethoxy)-1,6-naphthyridin-4-yl)oxy)phenyl)-N-(4-fluorophenyl)cyclopropyl-1,1-dicarboxamide], the inhibition at 1 µM at RET came out at 78.2%; at IGF1R it was 18.1%; on FGFR1 (read-out: Inhibtion rate (%) FGFR1) it was 36.3%; at Flt-1, 70.3%; on ABL, 23.3%; on c-Src it was 55.9%. Further, the inhibition at 1 µM at EGFR was determined as 8.6%; at PDGFR-β, 48.7%; at ALK it was 21.7%; at PDGFR-α, 55.6%; at c-Met kinase (1 μM, read-out: Inhibtion rate (%) c-Met), 100%; on ErbB4, 6.6%. At EPH-A2, the inhibition at 1 µM amounted to 87.9%. In addition, the results for the half-inhibitory concentration (IC50) in the data set with EBC-1 cells and against c-Met kinase were 10 to 100 nM and 1 to 10 nM, respectively. Further, the “TV (mm^3, mean ± SD) d0” value in data set [1] (10 mg/kg qd/21 po) is recorded as 128 ± 34 mm^3; in data set [1] (100 mg/kg qd/21 po), 128 ± 39 mm^3. The results for the “Weight (g) d0” value in data set [1] (10 mg/kg qd/21 po) and in [1] (100 mg/kg qd/21 po) were 18.2 g and 17.4 g, respectively. Further, the “RTV (mean ± SD)” value was 6.09 ± 2.17 in data set [1] (10 mg/kg qd/21 po) and 1.26 ± 0.85 in [1] (100 mg/kg qd/21 po). Further, the “T/C (%)” value in data set [1] (10 mg/kg qd/21 po) is 46.24%; in data set [1] (100 mg/kg qd/21 po), 9.58% and 9.5%. In addition, the “TV (mm^3, mean ± SD) d21” value turned out to be 764 ± 258 mm^3 in data set [1] (10 mg/kg qd/21 po) and 181 ± 156 mm^3 in [1] (100 mg/kg qd/21 po). Further, the “Weight (g) d21” value in [1] (10 mg/kg qd/21 po) amounted to 22.0 g; in data set [1] (100 mg/kg qd/21 po), 20.7 g. Also, the “tumor volume growth inhibition rate GI” value in [1] (setting [3]) amounted to 96.5%. Further, the “tumor weight inhibition rate” value in data set [1] (setting [3]) came out at 86.9%. In addition, in [1] (within effective dose), the safety in vivo result was “safe and non-toxic within effective dose”. In [2] (male, Sprague-Dawley, plasma, oral, gavage 10 mg/kg vs intravenous 5 mg/kg, read-out: F (absolute bioavailability)), the bioavailability was 51.8%. Further, the figures for the AUC(0-inf) in data set [2] (setting [4]) and in data set [2] (setting [5]) were 16700 ng·h/mL and 16000 ng·h/mL, respectively. Also, the AUC(0-t) in data set [2] (setting [4]) was determined as 16500 ng·h/mL; in data set [2] (setting [5]) it was 15900 ng·h/mL. Further, the peak level in data set [2] (setting [4]) (Cmax) was 5450 ng/mL. Also, the Tmax in data set [2] (setting [4]) is 1.75 h. The half-life in data set [2] (setting [4]) is 1.66 h; in [2] (setting [5]) it was 1 h. The compound further had a clearance in [2] (setting [5]) of 5.23 mL/min/kg. Also, in data set [2] (male, Sprague-Dawley, plasma, intravenous 5 mg/kg, mean, read-out: Vss), the Vd was 0.346 L/kg. For the same compound, the mean residence time MRT in data set [2] (male, Sprague-Dawley, plasma, iv, 5 mg/kg, intravenous 5 mg/kg, mean, read-out: MRT) was 1.11 h; in [2] (male, Sprague-Dawley, plasma, po, 10 mg/kg, intragastric (gavage) 10 mg/kg, mean, read-out: MRT) it was 2.6 h; in data set [2] (intragastric (gavage) 10 mg/kg, mean, 10 mg/kg), 2.653 h.
Consider `CCN(CC)CCNC(=O)c1c(C)[nH]c(/C=C2\C(=O)Nc3ccc(F)cc32)c1C` [Su11248, reference compound], for which the inhibition at 1 µM amounted to 80.6% on RET, 77.4% at Flt-1, 55.6% on PDGFR-β and 54.8% on PDGFR-α.
For the compound AZD4547 [reference compound], the “Inhibtion rate (%) FGFR1” value at FGFR1 (1 μM) was 100%.

The values above are taken from US10710996B2, “Pyrido-azaheterecydic compound and preparation method and use thereof” (SHANGHAI INSTITUTE OF MATERIA MEDICA, CHINESE ACADEMY OF …, priority 2015, dated 2020).
